# Results from patent US20080280999A1, “Process for Making Pharmaceutical Compositions with a Transient Plasticizer” (NOVARTIS AG, priority 2005, published 2008).
# Assay: Solubility in water
# Assay type: physicochemical
# Description: As used herein, the term “poorly water-soluble” or “poorly soluble” refers to having a solubility in water at 20° C. of less than 1%, i.e., a “sparingly soluble to practically insoluble, or insoluble drug” as described in Remington, The Science and Practice of Pharmacy, 21st Edition, p. 212, D. B. Troy, Ed., Lippincott Williams & Wilkins (2005).
solubility [µg/mL],solubility in water (in words),SMILES
10,–,CN(Cc1ccccc1)C(=O)[C@H](Cc1ccc2ccccc2c1)N(C)C(=O)[C@@H]1CCCN1c1nc(=O)c2ccccc2[nH]1
–,insoluble in water,CC[C@@H]1/C=C(\C)C[C@H](C)C[C@H](OC)[C@H]2O[C@@](O)(C(=O)C(=O)N3CCCC[C@H]3C(=O)O[C@H](/C(C)=C/[C@@H]3CC[C@H](Cl)[C@H](OC)C3)[C@H](C)[C@@H](O)CC1=O)[C@H](C)C[C@@H]2OC [Pimecrolimus]
